Source: patent US7625872B2, “Branched immunomodulatory compounds and methods of using the same” (Dynavax Technologies Corporation, priority 2002, dated 2009)

Columns and labels:
human PBMC cells = assay: human PBMC assay: IFN-γ and IFN-α in cell-free medium by ELISA; assay type: cell-based; conditions: for IFN-α (pg/ml) 17240 / IFN-γ (pg/ml) 17240: donor 17240; for IFN-α (pg/ml) 17240 / IFN-γ (pg/ml) 17240 / IFN-α (pg/ml) 17241 / IFN-γ (pg/ml) 17241 / IFN-α (pg/ml) 17242 / IFN-γ (pg/ml) 17242 / IFN-α (pg/ml) 17243 / IFN-γ (pg/ml) 17243 / IFN-α (pg/ml) mean: test samples 20 μg/ml, '+ PLGA' = premixed with 100 μg/ml cPLGA; for IFN-α (pg/ml) 17240 / IFN-γ (pg/ml) 17240 / IFN-α (pg/ml) 17241 / IFN-γ (pg/ml) 17241 / IFN-α (pg/ml) 17242 / IFN-γ (pg/ml) 17242 / IFN-α (pg/ml) 17243 / IFN-γ (pg/ml) 17243 / IFN-α (pg/ml) mean / IFN-α +PLGA / IFN-γ +PLGA / IFN-α −PLGA / IFN-γ −PLGA: 24 hours; for IFN-α (pg/ml) 17240 / IFN-γ (pg/ml) 17240 / IFN-α (pg/ml) 17241 / IFN-γ (pg/ml) 17241 / IFN-α (pg/ml) 17242 / IFN-γ (pg/ml) 17242 / IFN-α (pg/ml) 17243 / IFN-γ (pg/ml) 17243: SAC 1/5000 dilution; for IFN-α (pg/ml) 17241 / IFN-γ (pg/ml) 17241: donor 17241; for IFN-α (pg/ml) 17242 / IFN-γ (pg/ml) 17242: donor 17242; for IFN-α (pg/ml) 17243 / IFN-γ (pg/ml) 17243: donor 17243; for IFN-α (pg/ml) mean: mean of 4 donors; for IFN-α +PLGA / IFN-γ +PLGA / IFN-α −PLGA / IFN-γ −PLGA: mean results (Table 4; unit in Table 3); for IFN-α +PLGA / IFN-γ +PLGA: 20 μg/ml formulated with 100 μg/ml cPLGA; for IFN-α −PLGA / IFN-γ −PLGA: compound alone, 20 μg/ml
Protocol: Peripheral blood was collected from volunteers by venipuncture using heparinized syringes. Blood was layered onto a FICOLL® (Amersham Pharmacia Biotech) cushion and centrifuged. PBMCs, located at the FICOLL® interface, were collected, then washed twice with cold phosphate buffered saline (PBS). The cells were resuspended and cultured in 48 well plates or 96-well plates at 2×10^6 cells/mL at 37° C. in RPMI 1640 with 10% heat-inactivated human AB serum plus 50 units/mL penicillin, 50 μg/mL streptomycin, 300 μg/mL glutamine, 1 mM sodium pyruvate, and 1×MEM non-essential amino acids (NEAA).
The cells were cultured in the absence of test samples, in the presence of test samples at 20 μg/ml (0.5 OD/ml), or in the presence of test samples at 20 μg/ml premixed with 100 μg/ml cationic poly(lactic acid, glycolic acid) microcarriers (cPLGA; see infra) (when used) for 24 hours. Cell-free medium was then collected from each well and assayed for IFN-γ and IFN-α concentrations. SAC (Pansorbin CalBiochem, 1/5000 dilution) was used as a positive control. SAC is Staph. aureus (cowan) cell material.
IFN-γ and IFN-α were assayed using CYTOSCREEN™ ELISA kits from BioSource International, Inc., according to the manufacturer's instructions.
Compound B07 (see Example 1, above) was tested for immunomodulatory activity in human PBMC cells as outlined in Example 9, above. For comparison purposes, the immunomodulatory activities of a variety of polynucleotides and chimeric molecules containing spacer moieties were also assayed. The syntheses and features of immunomodulatory chimeric molecules like compounds C-101, C-124, and C-125 are described in U.S. patent application Ser. No. 10/176,883 entitled, “Chimeric Immunomodulatory Compounds and Methods of Using the Same,” filed on Jun. 21, 2002, herein incorporated by reference. All nucleotide linkages and linkages between NAMs, spacer moieties and branch-point nucleosides in the listed compounds are phosphorothioate esters. HEG=hexaethylene glycol; symmetrical doubler=1,3-diamino-2-propanol; trebler=modified pentaerythritol; T-C6=2′-deoxyuridine; AHA=aminohexyl-3(E)-acrylamido linked at the C-5 position of 2′-deoxyuridine (see FIG. 1A). The compounds were each tested both alone and formulated with cPLGA (see Example 9, supra).

[1] = solubility of spacer moiety measured as dialcohol precursor; assay type: physicochemical; conditions: dodecyl spacer measured as dialcohol precursor; water solubility
Protocol: In addition, a spacer moiety that has low solubility, such as a dodecyl spacer (solubility <5 mg/ml when measured as dialcohol precursor 1,12-dihydroxydodecane) is not preferred because it can reduce the hydrophilicity and activity of the BIC. Preferably, spacer moieties have solubility much greater than 5 mg/ml (e.g., solubility at least about 20 mg/ml, at least about 50 mg/ml or at least about 100 mg/ml), e.g., when measured as dialcohol precursors. The form of the spacer moiety used for testing its water solubility is generally its most closely related unactivated and unprotected spacer precursor molecule.

Row | Compound | IFN-α (pg/ml) 17240 (human PBMC cells) [pg/mL] | IFN-γ (pg/ml) 17240 (human PBMC cells) [pg/mL] | IFN-α (pg/ml) 17241 (human PBMC cells) [pg/mL] | IFN-γ (pg/ml) 17241 (human PBMC cells) [pg/mL] | IFN-α (pg/ml) 17242 (human PBMC cells) [pg/mL] | IFN-γ (pg/ml) 17242 (human PBMC cells) [pg/mL] | IFN-α (pg/ml) 17243 (human PBMC cells) [pg/mL] | IFN-γ (pg/ml) 17243 (human PBMC cells) [pg/mL] | IFN-α (pg/ml) mean (human PBMC cells) [pg/mL] | IFN-α +PLGA (human PBMC cells) [pg/mL] | IFN-γ +PLGA (human PBMC cells) [pg/mL] | IFN-α −PLGA (human PBMC cells) [pg/mL] | IFN-γ −PLGA (human PBMC cells) [pg/mL] | solubility [1] [µg/mL] | immunomodulatory activity compared with linear polynucleotide P-6 (human PBMC cells; PBMC assays, in words) | induction of IFN-γ and IFN-α compared with chimeric compounds (human PBMC cells; PBMC assays, in words)
1 | 5′-TGACTGTGAACCTTAGAGATGA-3′ (DNA TGACTGTGAACCTTAGAGATGA; DNA, all phosphorothioate, methylation of C not given here) [P-7] | 30 | 35 | 30 | 127 | 30 | 10 | 30 | 58 | 30 | 30 | 34 | 30 | 58 |  |  | 
2 | 5′-TGACTGTGAACGTTCGAGATGA-3′ [P-6] | 86 | 172 | 30 | 158 | 57 | 47 | 30 | 77 | 51 | 295 | 568 | 51 | 113 |  |  | 
3 | OCCCCCCCCCCCCO [1,12-dihydroxydodecane] |  |  |  |  |  |  |  |  |  |  |  |  |  | < 5000 |  | 
4 | (5-TCGACGT-3′-HEG)2-(T-C6)-AHA-HEG-5′-TCGACGT-3′ [B07] | 1080 | 205 | 122 | 108 | 1039 | 30 | 201 | 140 | 610 | 7298 | 883 | 610 | 121 |  | far superior immunomodulatory activity than the linear polynucleotide P-6 | activity similar to the immunomodulatory chimeric compounds C-101, C-124, and C-125
5 | (5′-TAGTCAT-3′-HEG)2-glycerol-HEG-5′-AACCTTC-3′ [M-100] | 30 | 27 | 30 | 71 | 30 | 10 | 30 | 41 | 30 | 69 | 136 | 30 | 37 |  |  | 
